Data from ChEMBL document CHEMBL5346973 (J Med Chem, 2023).
Where a SMILES comes first, the peptide text is derived from it.

Experiments:
[1] = target: Nicotinic acetylcholine receptor alpha9/alpha10 (Rattus norvegicus, UniProt P43144+Q9JLB5); experiment: Antagonist activity at rat alpha9alpha10 nACh receptor expressed in Xenopus oocyte assessed as inhibition of acetylcholine-induced response at -70 mV holding potential by voltage-clamp based electrophysiological assay; type: cell-based
[2] = target: Neuronal acetylcholine receptor subunit alpha-7 (Rattus norvegicus, UniProt Q05941); experiment: Antagonist activity at rat alpha7 nACh receptor expressed in Xenopus oocyte assessed as inhibition of acetylcholine-induced response at -70 mV holding potential by voltage-clamp based electrophysiological assay; type: cell-based
Neuronal acetylcholine receptor subunit alpha-7, sequence (Q05941 whole entry): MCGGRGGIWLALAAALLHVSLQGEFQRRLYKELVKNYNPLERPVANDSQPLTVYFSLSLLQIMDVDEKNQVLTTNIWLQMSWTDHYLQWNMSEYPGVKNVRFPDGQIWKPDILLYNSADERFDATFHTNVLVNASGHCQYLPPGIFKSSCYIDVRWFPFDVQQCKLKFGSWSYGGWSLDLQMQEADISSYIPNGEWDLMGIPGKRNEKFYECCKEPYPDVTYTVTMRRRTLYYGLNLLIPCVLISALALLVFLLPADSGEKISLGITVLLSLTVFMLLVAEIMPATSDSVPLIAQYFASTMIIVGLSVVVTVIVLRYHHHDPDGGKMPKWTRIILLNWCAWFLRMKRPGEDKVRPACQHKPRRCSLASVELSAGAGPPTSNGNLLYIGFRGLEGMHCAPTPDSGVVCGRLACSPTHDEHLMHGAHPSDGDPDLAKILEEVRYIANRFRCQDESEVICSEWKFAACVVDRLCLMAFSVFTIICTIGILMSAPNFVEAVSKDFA

Nicotinic acetylcholine receptor alpha9/alpha10, sequence (P43144 whole entry): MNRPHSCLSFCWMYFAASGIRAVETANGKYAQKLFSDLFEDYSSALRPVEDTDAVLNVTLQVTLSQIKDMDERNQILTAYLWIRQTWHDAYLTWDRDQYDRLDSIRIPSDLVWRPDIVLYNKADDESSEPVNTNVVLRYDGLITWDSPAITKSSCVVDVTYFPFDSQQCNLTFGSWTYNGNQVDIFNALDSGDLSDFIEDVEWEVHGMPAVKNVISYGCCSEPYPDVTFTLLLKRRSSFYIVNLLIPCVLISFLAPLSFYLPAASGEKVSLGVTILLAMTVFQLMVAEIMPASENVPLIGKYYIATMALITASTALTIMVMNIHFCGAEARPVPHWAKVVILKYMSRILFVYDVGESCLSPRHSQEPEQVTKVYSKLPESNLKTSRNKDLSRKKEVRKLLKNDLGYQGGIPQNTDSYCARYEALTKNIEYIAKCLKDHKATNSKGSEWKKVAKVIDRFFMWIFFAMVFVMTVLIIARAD
Nicotinic acetylcholine receptor alpha9/alpha10, sequence (Q9JLB5 whole entry): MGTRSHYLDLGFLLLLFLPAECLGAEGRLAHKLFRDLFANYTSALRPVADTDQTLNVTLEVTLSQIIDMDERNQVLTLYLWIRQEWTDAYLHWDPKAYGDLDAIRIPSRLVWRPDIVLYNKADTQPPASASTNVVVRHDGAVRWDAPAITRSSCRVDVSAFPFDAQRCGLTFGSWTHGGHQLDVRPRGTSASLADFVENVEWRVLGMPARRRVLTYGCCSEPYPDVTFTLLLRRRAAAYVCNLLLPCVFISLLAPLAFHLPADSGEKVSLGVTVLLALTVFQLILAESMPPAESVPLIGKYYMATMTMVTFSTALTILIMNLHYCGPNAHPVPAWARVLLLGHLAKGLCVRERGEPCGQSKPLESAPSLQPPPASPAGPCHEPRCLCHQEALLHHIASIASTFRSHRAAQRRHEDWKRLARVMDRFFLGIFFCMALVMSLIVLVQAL

Compound	IC50 [1] [nM]	IC50 [2] [nM]
CC[C@H](C)[C@@H]1NC(=O)[C@H](CCCNC(=N)N)NC(=O)[C@H](CCCNC(=N)N)NC(=O)[C@@H]2CSSC[C@H](NC(=O)[C@H](Cc3ccc(O)cc3)NC(=O)[C@H](CCCNC(=N)N)NC(=O)CNC(=O)[C@H](CO)NC(=O)[C@H](CO)NC(=O)[C@H](CCCNC(=N)N)NC(=O)[C@@H](NC(=O)[C@@H](N)[C@@H](C)O)CSSC[C@@H](C(=O)N[C@H](C(=O)O)C(C)C)NC(=O)[C@H](C)NC(=O)[C@H](CC(=O)O)NC(=O)[C@H]([C@@H](C)O)NC1=O)C(=O)N[C@@H](CCCNC(=N)N)C(=O)N[C@@H](CO)C(=O)N[C@@H](C)C(=O)N[C@@H](Cc1ccc(O)cc1)C(=O)N[C@@H](CC(=O)O)C(=O)N[C@@H](CCCNC(=N)N)C(=O)N[C@@H](CCCNC(=N)N)C(=O)N[C@@H](CCCNC(=N)N)C(=O)N[C@@H](CCCNC(=N)N)C(=O)N[C@@H](Cc1ccc(O)cc1)C(=O)N2 (HELM PEPTIDE1{T.C.R.S.S.G.R.Y.C.R.S.A.Y.D.R.R.R.R.Y.C.R.R.I.T.D.A.C.V}$PEPTIDE1,PEPTIDE1,2:R3-27:R3|PEPTIDE1,PEPTIDE1,9:R3-20:R3$$$V2.0)	10	1780
CC[C@H](C)[C@@H]1NC(=O)[C@H](CCCNC(=N)N)NC(=O)[C@H](CCCNC(=N)N)NC(=O)[C@@H]2CSSC[C@H](NC(=O)[C@H](Cc3ccc(O)cc3)NC(=O)[C@H](CCCNC(=N)N)NC(=O)CNC(=O)[C@H](CO)NC(=O)[C@H](CO)NC(=O)[C@H](CCCNC(=N)N)NC(=O)[C@@H](NC(=O)[C@@H](N)[C@@H](C)O)CSSC[C@@H](C(=O)N[C@@H](C)C(=O)O)NC(=O)[C@H](C)NC(=O)[C@H](CC(=O)O)NC(=O)[C@H]([C@@H](C)O)NC1=O)C(=O)N[C@@H](CCCNC(=N)N)C(=O)N[C@@H](CO)C(=O)N1CCC[C@H]1C(=O)N[C@@H](Cc1ccc(O)cc1)C(=O)N[C@@H](CC(=O)O)C(=O)N[C@@H](CCCNC(=N)N)C(=O)N[C@@H](CCCNC(=N)N)C(=O)N[C@@H](CCCNC(=N)N)C(=O)N[C@@H](CCCNC(=N)N)C(=O)N[C@@H](Cc1ccc(O)cc1)C(=O)N2	62	1600
CC[C@H](C)[C@@H]1NC(=O)[C@H](CCCNC(=N)N)NC(=O)[C@H](C)NC(=O)[C@@H]2CSSC[C@H](NC(=O)[C@H](Cc3ccc(O)cc3)NC(=O)[C@H](CCCNC(=N)N)NC(=O)CNC(=O)[C@H](CO)NC(=O)[C@H](CO)NC(=O)[C@H](CCCNC(=N)N)NC(=O)[C@@H](NC(=O)[C@@H](N)[C@@H](C)O)CSSC[C@@H](C(=O)N[C@H](C(=O)O)C(C)C)NC(=O)[C@H](C)NC(=O)[C@H](CC(=O)O)NC(=O)[C@H]([C@@H](C)O)NC1=O)C(=O)N[C@@H](CCCNC(=N)N)C(=O)N[C@@H](CO)C(=O)N1CCC[C@H]1C(=O)N[C@@H](Cc1ccc(O)cc1)C(=O)N[C@@H](CC(=O)O)C(=O)N[C@@H](CCCNC(=N)N)C(=O)N[C@@H](CCCNC(=N)N)C(=O)N[C@@H](CCCNC(=N)N)C(=O)N[C@@H](CCCNC(=N)N)C(=O)N[C@@H](Cc1ccc(O)cc1)C(=O)N2	37	> 10000
CC[C@H](C)[C@@H]1NC(=O)[C@H](CCCNC(=N)N)NC(=O)[C@H](CCCNC(=N)N)NC(=O)[C@@H]2CSSC[C@H](NC(=O)[C@H](Cc3ccc(O)cc3)NC(=O)[C@H](CCCNC(=N)N)NC(=O)CNC(=O)[C@H](CO)NC(=O)[C@H](CO)NC(=O)[C@H](CCCNC(=N)N)NC(=O)[C@@H](NC(=O)[C@@H](N)[C@@H](C)O)CSSC[C@@H](C(=O)N[C@H](C(=O)O)C(C)C)NC(=O)[C@H](C)NC(=O)[C@H](CC(=O)O)NC(=O)[C@H]([C@@H](C)O)NC1=O)C(=O)N[C@@H](CCCNC(=N)N)C(=O)N[C@@H](CO)C(=O)N1CCC[C@H]1C(=O)N[C@@H](C)C(=O)N[C@@H](CC(=O)O)C(=O)N[C@@H](CCCNC(=N)N)C(=O)N[C@@H](CCCNC(=N)N)C(=O)N[C@@H](CCCNC(=N)N)C(=O)N[C@@H](CCCNC(=N)N)C(=O)N[C@@H](Cc1ccc(O)cc1)C(=O)N2 (HELM PEPTIDE1{T.C.R.S.S.G.R.Y.C.R.S.P.A.D.R.R.R.R.Y.C.R.R.I.T.D.A.C.V}$PEPTIDE1,PEPTIDE1,2:R3-27:R3|PEPTIDE1,PEPTIDE1,9:R3-20:R3$$$V2.0)	20	4680
CC[C@H](C)[C@@H]1NC(=O)[C@H](CCCNC(=N)N)NC(=O)[C@H](CCCNC(=N)N)NC(=O)[C@@H](NC(=O)[C@H](Cc2ccc(O)cc2)NC(=O)[C@H](CCCNC(=N)N)NC(=O)[C@H](CCCNC(=N)N)NC(=O)[C@H](CCCNC(=N)N)NC(=O)[C@H](CCCNC(=N)N)NC(=O)[C@H](CC(=O)O)NC(=O)[C@H](Cc2ccc(O)cc2)NC(=O)[C@@H]2CCCN2C(=O)[C@H](CO)NC(=O)[C@H](CCCNC(=N)N)NC(=O)[C@@H]2CSSC[C@H](NC(=O)[C@@H](N)[C@@H](C)O)C(=O)N[C@@H](CCCNC(=N)N)C(=O)N[C@@H](CO)C(=O)N[C@@H](CO)C(=O)NCC(=O)N[C@@H](CCCNC(=N)N)C(=O)N[C@@H](C)C(=O)N2)CSSC[C@@H](C(=O)N[C@H](C(=O)O)C(C)C)NC(=O)[C@H](C)NC(=O)[C@H](CC(=O)O)NC(=O)[C@H]([C@@H](C)O)NC1=O (HELM PEPTIDE1{T.C.R.S.S.G.R.A.C.R.S.P.Y.D.R.R.R.R.Y.C.R.R.I.T.D.A.C.V}$PEPTIDE1,PEPTIDE1,2:R3-9:R3|PEPTIDE1,PEPTIDE1,20:R3-27:R3$$$V2.0)	10	1700
CC[C@H](C)[C@@H]1NC(=O)[C@H](CCCNC(=N)N)NC(=O)[C@H](CCCNC(=N)N)NC(=O)[C@@H](NC(=O)[C@H](Cc2ccc(O)cc2)NC(=O)[C@H](CCCNC(=N)N)NC(=O)[C@H](CCCNC(=N)N)NC(=O)[C@H](CCCNC(=N)N)NC(=O)[C@H](CCCNC(=N)N)NC(=O)[C@H](C)NC(=O)[C@H](Cc2ccc(O)cc2)NC(=O)[C@@H]2CCCN2C(=O)[C@H](CO)NC(=O)[C@H](CCCNC(=N)N)NC(=O)[C@@H]2CSSC[C@H](NC(=O)[C@@H](N)[C@@H](C)O)C(=O)N[C@@H](CCCNC(=N)N)C(=O)N[C@@H](CO)C(=O)N[C@@H](CO)C(=O)NCC(=O)N[C@@H](CCCNC(=N)N)C(=O)N[C@@H](Cc3ccc(O)cc3)C(=O)N2)CSSC[C@@H](C(=O)N[C@H](C(=O)O)C(C)C)NC(=O)[C@H](C)NC(=O)[C@H](CC(=O)O)NC(=O)[C@H]([C@@H](C)O)NC1=O (HELM PEPTIDE1{T.C.R.S.S.G.R.Y.C.R.S.P.Y.A.R.R.R.R.Y.C.R.R.I.T.D.A.C.V}$PEPTIDE1,PEPTIDE1,2:R3-9:R3|PEPTIDE1,PEPTIDE1,20:R3-27:R3$$$V2.0)	15	3080
CC[C@H](C)[C@@H]1NC(=O)[C@H](CCCNC(=N)N)NC(=O)[C@H](CCCNC(=N)N)NC(=O)[C@@H]2CSSC[C@H](NC(=O)[C@H](Cc3ccc(O)cc3)NC(=O)[C@H](CCCNC(=N)N)NC(=O)CNC(=O)[C@H](CO)NC(=O)[C@H](C)NC(=O)[C@H](CCCNC(=N)N)NC(=O)[C@@H](NC(=O)[C@@H](N)[C@@H](C)O)CSSC[C@@H](C(=O)N[C@H](C(=O)O)C(C)C)NC(=O)[C@H](C)NC(=O)[C@H](CC(=O)O)NC(=O)[C@H]([C@@H](C)O)NC1=O)C(=O)N[C@@H](CCCNC(=N)N)C(=O)N[C@@H](CO)C(=O)N1CCC[C@H]1C(=O)N[C@@H](Cc1ccc(O)cc1)C(=O)N[C@@H](CC(=O)O)C(=O)N[C@@H](CCCNC(=N)N)C(=O)N[C@@H](CCCNC(=N)N)C(=O)N[C@@H](CCCNC(=N)N)C(=O)N[C@@H](CCCNC(=N)N)C(=O)N[C@@H](Cc1ccc(O)cc1)C(=O)N2	17	4100
CC[C@H](C)[C@@H]1NC(=O)[C@H](CCCNC(=N)N)NC(=O)[C@H](CCCNC(=N)N)NC(=O)[C@@H](NC(=O)[C@H](Cc2ccc(O)cc2)NC(=O)[C@H](CCCNC(=N)N)NC(=O)[C@H](CCCNC(=N)N)NC(=O)[C@H](CCCNC(=N)N)NC(=O)[C@H](C)NC(=O)[C@H](CC(=O)O)NC(=O)[C@H](Cc2ccc(O)cc2)NC(=O)[C@@H]2CCCN2C(=O)[C@H](CO)NC(=O)[C@H](CCCNC(=N)N)NC(=O)[C@@H]2CSSC[C@H](NC(=O)[C@H](N)[C@H](C)O)C(=O)N[C@@H](CCCNC(=N)N)C(=O)N[C@@H](CO)C(=O)N[C@@H](CO)C(=O)NCC(=O)N[C@@H](CCCNC(=N)N)C(=O)N[C@@H](Cc3ccc(O)cc3)C(=O)N2)CSSC[C@@H](C(=O)N[C@H](C(=O)O)C(C)C)NC(=O)[C@H](C)NC(=O)[C@H](CC(=O)O)NC(=O)[C@H]([C@@H](C)O)NC1=O	32	3280
CC[C@H](C)[C@@H]1NC(=O)[C@H](CCCNC(=N)N)NC(=O)[C@H](CCCNC(=N)N)NC(=O)[C@@H](NC(=O)[C@H](Cc2ccc(O)cc2)NC(=O)[C@H](CCCNC(=N)N)NC(=O)[C@H](CCCNC(=N)N)NC(=O)[C@H](CCCNC(=N)N)NC(=O)[C@H](CCCNC(=N)N)NC(=O)[C@H](CC(=O)O)NC(=O)[C@H](Cc2ccc(O)cc2)NC(=O)[C@@H]2CCCN2C(=O)[C@H](CO)NC(=O)[C@H](CCCNC(=N)N)NC(=O)[C@@H]2CSSC[C@H](NC(=O)[C@@H](N)[C@@H](C)O)C(=O)N[C@@H](CCCNC(=N)N)C(=O)N[C@@H](CO)C(=O)N[C@@H](CO)C(=O)NCC(=O)N[C@@H](CCCNC(=N)N)C(=O)N[C@@H](Cc3ccc(O)cc3)C(=O)N2)CSSC[C@@H](C(=O)N[C@H](C(=O)O)C(C)C)NC(=O)[C@H](C)NC(=O)[C@H](CC(=O)O)NC(=O)[C@H](C)NC1=O	21	650
CC[C@H](C)[C@@H]1NC(=O)[C@H](CCCNC(=N)N)NC(=O)[C@H](CCCNC(=N)N)NC(=O)[C@@H]2CSSC[C@H](NC(=O)[C@H](Cc3ccc(O)cc3)NC(=O)[C@H](CCCNC(=N)N)NC(=O)CNC(=O)[C@H](CO)NC(=O)[C@H](CO)NC(=O)[C@H](CCCNC(=N)N)NC(=O)[C@@H](NC(=O)[C@@H](N)[C@@H](C)O)CSSC[C@@H](C(=O)N[C@H](C(=O)O)C(C)C)NC(=O)[C@H](C)NC(=O)[C@H](CC(=O)O)NC(=O)[C@H]([C@@H](C)O)NC1=O)C(=O)N[C@@H](CCCNC(=N)N)C(=O)N[C@@H](CO)C(=O)N1CCC[C@H]1C(=O)N[C@@H](Cc1ccc(O)cc1)C(=O)N[C@@H](C)C(=O)N[C@@H](CCCNC(=N)N)C(=O)N[C@@H](CCCNC(=N)N)C(=O)N[C@@H](CCCNC(=N)N)C(=O)N[C@@H](CCCNC(=N)N)C(=O)N[C@@H](Cc1ccc(O)cc1)C(=O)N2 (HELM PEPTIDE1{T.C.R.S.S.G.R.Y.C.R.S.P.Y.A.R.R.R.R.Y.C.R.R.I.T.D.A.C.V}$PEPTIDE1,PEPTIDE1,2:R3-27:R3|PEPTIDE1,PEPTIDE1,9:R3-20:R3$$$V2.0)	4.7	7640
